{
  "source": "patent EP0253697A2",
  "about": "“Medicament and medicament compositions for the treatment of infective diseases due to viruses, as well as for the treatment of tumours” (INSTITUT NATIONAL DE LA SANTE ET DE LA RECHERCHE MEDICALE …, priority 1986, dated 1988)",
  "key": {"[1]": {"system": "virus de l'herpès simplex du type 1 (HSV.1)", "test": "Inhibition of viral lysis plaque formation (PFU) in infected VERO cells", "type": "cell-based", "details": "in vitro, DNA virus", "text": "(§1) Des cellules VERO (lignée de cellules \"normales\") ont été infectées par le virus de l'herpès simplex du type 1 (HSV.1) ou par le virus de la rougeole à une multiplicité d'infection d'une particule infectieuse par cellule. Les cellules infectées ont été traitées par GAH aux doses indiquées sur la Figure 1. L'inhibition observée, emprimée en logarithme d'inhibition de la formation de plages de lyse cellulaire par le virus (PFU-\"Plage Forming Unit\") par ml de milieu, semble apparaître brusquement après avoir dépassé une concentration \"seuil\" située autour de 600 lim. par litre de milieu cellulaire. Le fait que la concentration optimale soit la même pour les deux virus testés, qui, comme indiqué ci-dessus, sont très différents, est en faveur d'une action de la substance au niveau cellulaire, action capable d'éveiller un état de résistance envers les virus infectants."}, "virus de la rougeole": {"system": "virus de la rougeole", "test": "Inhibition of viral lysis plaque formation (PFU) in infected VERO cells", "type": "cell-based", "details": "in vitro, RNA virus", "text": "as §1"}, "[2]": {"system": "cellules (infectées ou non)", "test": "Toxicity for the cells (infected or not) in the antiviral experiments", "type": "cell-based"}, "[3]": {"system": "virus du sarcome de Rous (RSV, souche B77)", "test": "Reverse transcriptase activity in culture medium and focus formation, infected chicken fibroblasts", "type": "cell-based, poulet", "text": "Il a été également montré que le GAH provoque aussi une importante inhibition de la multiplication des virus appartenant à la famille des rétrovirus (virus à ARN possédant une activité dite de transcriptase inverse, c'est-à-dire une ADN polymé- rase-ARN dépendante). Ceci a été démontré avec le virus du sarcome de Rous (RSV, virus oncogène, sous-famille oncovirinae) et avec le virus visna (virus lytique, sous-famille lentivirinae à laquelle appartient aussi le H.I.V.). • 1 - Des fibroblastes de poulet, en passage secondaire, sont ensemencés et traités, ou non, par le GAH à diverses concentrations. Ensuite, les cellules sont infectées par le RSV (souche B77). Le milieu de culture des cellules infectées est recueilli à différents temps post- infection et l'activité transcriptase inverse a été mesurée, cette mesure étant considérée généralement comme un reflet de la libération des particules virales dans les milieux de culture. […] Il est intéressant de signaler que, comme dans le cas des hespesvirus, l'activité antivirable apparaît à la même dose de GAH capable de provoquer l'arrêt de la prolifération cellulaire, ce qui est en accord avec la notion d'une action du GAH agissant en premier lieu au niveau cellulaire."}, "virus Visna": {"system": "virus Visna", "test": "Reverse transcriptase activity, infected sheep embryo fibroblasts", "type": "cell-based, mouton", "details": "GAH present at the time of infection, versus untreated cells; Figure 1B"}, "[4]": {"system": "carcinome de tumeur mammaire (lignée MCF7)", "test": "DNA synthesis (3H-thymidine incorporation) in tumour cells", "type": "cell-based, humain", "text": "(§2) L'effet du GAH a été étudié sur diverses lignées cellulaires obtenues à partir de tumeurs humaines et fibroblastes de poumon foetal humain (MRC5).\n(§3) - Ordonnées : incorporation de ^3H-thymidine (comptage de la radioactivité correspondante en coups par minute (CPM)."}, "[5]": {"system": "carcinome du colon (lignée HT29)", "test": "DNA synthesis (3H-thymidine incorporation) in tumour cells", "type": "cell-based, humain", "text": "as §2, §3"}, "[6]": {"system": "cellules de tumeurs de Burkitt", "test": "DNA synthesis (3H-thymidine incorporation) in tumour cells", "type": "cell-based, humain", "text": "as §2, §3"}, "[7]": {"system": "llgnée de tumeur d' Ewing", "test": "DNA synthesis (3H-thymidine incorporation) in tumour cells", "type": "cell-based, humain", "text": "as §2, §3"}, "mélanome": {"system": "mélanome", "test": "DNA synthesis (3H-thymidine incorporation) in tumour cells", "type": "cell-based, humain", "text": "as §2, §3"}, "[8]": {"system": "cellules de lymphome murin RBL5", "test": "DNA synthesis (3H-thymidine incorporation) in tumour cells", "type": "cell-based"}, "leucémie L1 210 [9]": {"system": "leucémie L1 210", "test": "DNA synthesis (3H-thymidine incorporation) in tumour cells", "type": "cell-based, murin", "details": "Figure 2", "text": "as §2\n- Abscisses : temps de contact des différentes cellules avec le le L-glutamique acide y monohydroxamate : 1-L1210 • 2 - BL60 • 3 - NterDau • 4-B16\nas §3"}, "cellules de mélanome": {"system": "cellules de mélanome", "test": "Survival of melanoma cells versus dose and contact time", "type": "cell-based", "procedure": "Sur une lignée de mélanome prise comme exemple, on peut voir que l'effet inhibiteur est dépendant de la dose (Figure 3), mais également du temps de contact. Dès 2 heures de contact des cellules de mélanome avec 1,5 mM de GAH, il y a mort cellulaire, qui s'amplifie jusqu'à 72 heures de culture des cellules tumorales, puis les cellules échappent à cette inhibition (Figure 4). […] Ainsi, pour les cellules de mélanome, un contact de 30 heures avec 1,5 mM de GAH est nécessaire pour avoir une mort cellulaire complète à 72 heures, alors que 50 heures de contact sont nécessaires avec une concentration de drogue de 400 µM (Figure 5).\n- Abscisses : temps de contact des cellules de mélanome avec différentes concentrations de GAH : • 400 µM; ○ 1 mM; . 1,5 mM - Ordonnées : pourcentage de survie des cellules de mélanome à 72 heures."}, "[10]": {"test": "Growth, DNA synthesis and survival of normal MRC5 cells", "type": "cell-based, humain", "details": "human; normal MRC5 cells, Figure 6; read-out: doses sans mort cellulaire", "text": "as §2\n(§4) La croissance des cellules MRC5 dans un milieu déprimé en glutamine est aussi arrêtée, avec, cependant, un décalage dans l'inhibition par rapport à l'effet du GAH. […] Il s'agit probablement de deux mécanismes d'action différents.\n(§5) • - Abscisses : temps de culture des cellules MRC5 : 1. avec différentes conditions de culture • O témoin MRC5 milieu normal • milieu déprimé en glutamine • ? milieu normal avec D-glutamyl acide (GAH 2. après élimination des différentes drogues et addition • ? milieu normal MRC5 témoin • milieu avec glutamine 2mM • ? milieu normal • ? milieu GAH + glutamine 2mM • - Ordonnées : nombre de cellules vivantes."}, "cellules normales MRC5": {"system": "cellules normales MRC5", "test": "Growth, DNA synthesis and survival of normal MRC5 cells", "type": "cell-based, humain", "text": "as §2, §4, §5"}, "leucémie L1 210 [11]": {"system": "leucémie L1 210", "test": "Survival of mice inoculated with L1 210 leukaemia", "type": "in vivo, souris DBA/2", "details": "5x10^5 cells IP; 1200 mg/kg/day days 1-4, 600 mg/kg/day days 8-10; Figure 8", "text": "(§6) Compte tenu des résultats in vitro, l'activité anti-tumorale de GAH a été étudiée sur deux modèles tumoraux murins : leucémie L1 210 et mélanome B16.\nPour la leucémie L1 210, maintenue par passage intra-péritonéal chez la souris DBA/2, le nombre de cellules utilisées pour les essais thérapeutiques est de 5.10^5 cellules par souris.\n(§7) Les résultats positifs qui ont été obtenus sont exprimés par le pourcentage d'augmentation de la survie, considérant comme significative une augmentation de 30%.\nCourbe de survie des souris DBA/2-B6D2F1 inoculées avec L1 210 (5x10^5 cellules dans 0,5 ml IP) après traitement avec L-glutamique acide monohydroxamate : 1200 mg/kg dose/jour, les jours 1, 2, 3, 4; et 600 mg/kg dose/jour, les jours 8, 9, 10 (les groupes sont constitués de 8 souris.). - Abscisses : jours après l'inoculation de cellules tumorales - Ordonnées : pourcentage de souris vivantes."}, "mélanome B16": {"system": "mélanome B16", "test": "Survival of mice inoculated with B16 melanoma", "type": "in vivo, souris", "details": "10^6 cells IP; 1200 mg/kg/day days 1-4, 600 mg/kg/day days 8-11, 300 mg/kg/day days 16-19; Figure 9", "text": "as §6\nPour le mélanome B16, maintenu par passage souscutanés successifs, la dose injectée par voie intra-péritonéale pour les essais thérapeutiques est de 10^6 cellules par souris.\nas §7\nCourbe de survie des souris C5b16 inoculées avec les cellules de mélanome B16 (10^6 cellules dans 0,5 ml IP)après traitement avec GAH : 1200 mg/kg dose/jour, les jours 1, 2, 3, 4; 600 mg/kg dose/jour, les jours 8, 9, 10, 11; et 300 mg/kg dose/jour, les jours 16, 17, 18, 19 (les groupes traités et non traités sont de 6 animaux). - Abscisses : jours après l'inoculation de cellules tumorales - Ordonnées : pourcentage de souris vivantes"}, "[12]": {"system": "colonies métas- tasiantes du mélanome B 16", "test": "Cytolytic effect on cells isolated from metastases in vitro", "type": "cell-based"}},
  "data": [
    {"smiles": "N[C@@H](CCC(=O)NO)C(=O)O", "note": "[GAH, L-glutamique acide y monohydroxamate]", "values": [
      {"measurement": "inhibition du virus", "setting": "[1]", "result": "inhibition très significative"},
      {"measurement": "inhibition du virus", "setting": "virus de la rougeole", "result": "inhibition très significative"},
      {"measurement": "toxicité pour les cellules", "setting": "[2]", "result": "faible taux, voire l'absence, de toxicité"},
      {"measurement": "activité transcriptase inverse dans le milieu de culture", "setting": "[3]; GAH 1mM present at the time of infection, chicken fibroblasts, Figure 1A", "result": "indétectable"},
      {"measurement": "formation de foyers de cellules transformées par le RSV", "setting": "[3]; GAH-treated cultures, untreated controls show foci after three days", "result": "aucune formation de foyers"},
      {"measurement": "activité transcriptase inverse", "setting": "virus Visna", "result": "diminution considérable"},
      {"measurement": "effet sur la synthèse de l'ADN", "setting": "[4]", "result": "effet inhibiteur total"},
      {"measurement": "effet sur la synthèse de l'ADN", "setting": "[5]", "result": "effet inhibiteur total"},
      {"measurement": "effet sur la synthèse de l'ADN", "setting": "[6]", "result": "effet inhibiteur total"},
      {"measurement": "effet sur la synthèse de l'ADN", "setting": "[7]", "result": "effet inhibiteur total"},
      {"measurement": "effet sur la synthèse de l'ADN", "setting": "mélanome", "result": "effet inhibiteur total"},
      {"measurement": "effet sur la synthèse de l'ADN", "setting": "[8]", "result": "effet inhibiteur total"},
      {"measurement": "effet sur la synthèse de l'ADN", "setting": "leucémie L1 210 [9]", "result": "effet inhibiteur total"},
      {"measurement": "temps de contact nécessaire pour une mort cellulaire complète à 72 heures", "setting": "cellules de mélanome; 400 µM GAH (Figure 5)", "result": 50, "unit": "heures"},
      {"measurement": "temps de contact nécessaire pour une mort cellulaire complète à 72 heures", "setting": "cellules de mélanome; 1,5 mM GAH (Figure 5)", "result": 30, "unit": "heures"},
      {"measurement": "temps de contact à partir duquel il y a mort cellulaire", "setting": "cellules de mélanome; 1,5 mM GAH, death from this contact time on, increasing up to 72 h of culture (Figure 4)", "result": 2, "unit": "heures"},
      {"measurement": "MNTC", "setting": "[10]", "result": "≤ 800", "unit": "µM"},
      {"measurement": "synthèse de l'ADN des cellules normales MRC5", "setting": "cellules normales MRC5", "result": "arrêt de synthèse de l'ADN"},
      {"measurement": "réversion de la croissance par addition de glutamine", "setting": "cellules normales MRC5; GAH-treated MRC5 cells, glutamine 2mM added (Figure 7)", "result": "ne reverse pas"},
      {"measurement": "effet sur les cellules normales", "setting": "cellules normales MRC5; reversible after removal of the drug", "result": "effet cytostatique"},
      {"measurement": "activité antitumorale (augmentation de la survie)", "setting": "leucémie L1 210 [11]", "result": "activité antitumorale"},
      {"measurement": "activité antitumorale (augmentation de la survie)", "setting": "mélanome B16", "result": "activité antitumorale"},
      {"measurement": "effet sur des cellules isolées de métastases", "setting": "[12]", "result": "effet cytolytique"}
    ]}
  ]
}
